Measurements taken from patent EP2692332A2, “Composition for the treatment of callus, corns, moles, telangiectasias, and psoriasis” (Unigroup ApS, priority 2012, dated 2014).

Type: physicochemical
Conditions: at higher concentrations than salicylic acid

O=CO [formic acid]
miscibility with ethyl lactate: miscible
